Reference: paper PMC10778198, “First-in-Human Dose-Escalation Study of the Novel Oral Depsipeptide Class I-Targeting HDAC Inhibitor Bocodepsin (OKI-179) in Patients with Advanced Solid Tumors” (Cancers, 2023)
Where two headings read alike, the source gives them in different places.

What was measured:
[1] = test system: murine (syngeneic) and human cancer cell line xenograft models; design: method as in PMID 34965958, PMID 31235619; details: single agent; colorectal cancer, triple-negative breast cancer, diffuse large B-cell lymphoma models; cited from earlier work
[2] = test system: histone acetylation (Ac-H3K27) in circulating T cells; assay: histone acetylation in circulating T cells (PBMC flow cytometry); type: in vivo, human
Protocol: Blood samples for acetylated (Ac)-H3K27, Ac-H3K9, and Ac-lysine levels in peripheral blood mononuclear cells (PBMCs) were collected in cycle 1. Samples were collected immediately prior to dosing and at 2, 8, and 24 h post-dosing on days 1 and 15. Blood samples were processed within 3 h of collection, and isolated PBMCs were washed and resuspended in cell cell-freezing medium. Cells were stored at ≤−70 °C prior to shipment to the University of Texas at Austin Dell Medical School (UTDMS) for analysis. Briefly, patient PBMCs were thawed at 37 °C for 5 min, washed with flow wash buffer containing PBS/2% FBS/5 mM EDTA, and stained for 30 min on ice with the following: fixable viability dye (BioLegend 423106; Zombie NIR^TM, San Diego, CA, USA), CD3 (Biolegend; Clone OKT3), CD4 (BioLegend; Clone SK3), and CD8 (Biolegend; Clone RPA-T8). All samples were washed twice before being fixed and permeabilized using a BD Biosciences (Hunt Valley, MD, USA) Cytofix/Cytoperm™ kit (RRID: AB_2869008) according to the manufacturer’s protocol and stained for 30 min for intracellular acetylation markers: Ac-H3K27 (Cell Signaling Technology; Clone D5E4), Ac-H3K9 (Cell Signaling Technology, Danvers, MA, USA; Clone CFB11), and total Ac-lysine (BioLegend; Clone 15G10). All cells were analyzed on a Cytek Aurora (5 L 16UV-16V-14B-10YG-8R). Spectral unmixing was performed based on fluorophore-specific single-color cells and compensation bead (ThermoFisher 01-2222-41, Waltham, MA, USA) controls using SpectroFlo© software (v3). All post-acquisition analyses were performed using FlowJo software (v10.3). Results are shown as fold-changes from pre-dose values for each patient and day.
Descriptive statistics were used for baseline characteristics, safety assessments, pharmacokinetic variables, exploratory assessments, and efficacy analysis, including the duration of response and time to progression. Tables were used to summarize the data across the cohort of patients and various dosing groups. Geometric means were used to calculate plasma concentration-time profiles. […]

[3] = plasma pharmacokinetics by LC-MS/MS in patients; type: in vivo, human; details: human, plasma, oral, 300 mg, plasma; for AUC(0-t): read-out: AUClast of OKI-179; for Cmax: read-out: Cmax of OKI-179; for Tmax: read-out: Tmax of OKI-179
Protocol: Blood samples were collected immediately prior to the first dose on cycle 1 and day 1, and then at 0.25, 0.5, 1, 2, 4, 8, and 24 h after taking OKI-179 on days 1 and 15. Additional samples were collected pre-dose and 2 and 4 h after OKI-179 administration on day 18 in later cohorts. Blood samples were stabilized with sodium fluoride and formic acid immediately after collection to arrest the additional conversion of the prodrug OKI-179 to OKI-006. Plasma was further stabilized using ascorbic acid prior to low-temperature storage.
Plasma concentrations of OKI-179 and OKI-006 were analyzed using validated liquid chromatography-mass spectrometry (LC-MS/MS) (Quintara Discovery Inc., Hayward, CA, USA). OKI-006 contains a free thiol moiety that can reversibly react with endogenous molecules in the blood and tissue, resulting in “bound” OKI-006. The unreacted OKI-006 is considered “free”. As bound OKI-006 can reversibly convert to free OKI-006 in vivo, both the free and “total” (free plus bound) concentrations of OKI-006 are considered pharmacologically relevant and were therefore quantified as part of this study. Bioanalytically, the total OKI-006 was measured by chemically converting all bound OKI-006 to free OKI-006 prior to analysis using the free OKI-006 bioanalytical method.
The AUClast was calculated from time zero to the time of the last quantifiable concentration for OKI-179, free OKI-006, and total OKI-006.

[4] = test system: metastatic NRAS-mutated melanoma; design: method as in earlier work; details: combination with binimetinib, phase 2 data, previously treated with immunotherapy; cited from earlier work
[5] = 300-mg 5:2, Cycle 1 Day 15, geometric mean

## CC(C)[C@H](N)C(=O)SCC/C=C/[C@@H]1CC(=O)NCc2nc(cs2)C(=O)NC(C)(C)C(=O)N[C@@H](C(C)C)C(=O)O1 [OKI-179, Bocodepsin]
[1]
  antitumor activity: significant antitumor activity
[2]; 300 mg doses, 2 h after dosing, days 1 and 15, T cells
  increase in histone acetylation: 6 fold
[2]; doses >200 mg
  increase in H3K27 acetylation in CD4 T cells: greater than 6 fold
[2]; doses of 200 mg or greater
  increase in H3K27 acetylation in circulating T cells: > 6 fold
[3]; 300 mg 5:2 cohort, mean single-dose
  AUC(0-t): 253 ng·h/mL
[3]; 300-mg 5:2, Cycle 1 Day 1, geometric mean, N=6
  Cmax: 142 ng/mL
[3]; 300-mg 5:2, Cycle 1 Day 1, geometric mean
  AUC(0-t): 253 ng·h/mL
[3]; 300-mg 5:2, Cycle 1 Day 1, median
  Tmax: 0.875 h
[3]; 300-mg 5:2, Cycle 1 Day 1, median, read-out: t1/2 of OKI-179 (converted)
  half-life: 1.75 h
[3]; [5]
  AUC(0-t): 374 ng·h/mL
  Cmax: 215 ng/mL
[3]; 300-mg 5:2, Cycle 1 Day 15, median
  Tmax: 0.934 h
[3]; 300-mg 5:2, Cycle 1 Day 15, median, read-out: t1/2 of OKI-179 (converted)
  half-life: 1.74 h
[3]; day 15, 300 mg 5:2, read-out: terminal half-life (t1/2) of OKI-179 (converted)
  half-life: ~1.7 h
[4]
  overall response rate (ORR): 38%
